Patent US20130104445A1, “ESSENTIAL OILS AND THEIR COMPOUNDS AS STINK BUG REPELLENTS” (priority 2011, published 2013)

System: BMSB adult or nymph antenna
Experiment: GC-EAD antennal responses to essential oil headspace (SPME) or synthetic SSB pheromone mixture
Design: species or system Halyomorpha halys
Method: Headspace volatiles from several essential oils (1 ml each in a closed 20 ml glass vial) were sampled via Solid-Phase Micro-Extraction (SPME) (CAR/PDMS, 85 μm, Supelco, Bellefonte, Pa.) for 30 sec before GC-EAD and GC-MS analyses.
BMSB nymphs and adults for electrophysiological study were taken from a lab colony originally collected from Pennsylvania, U.S.A., during the overwintering period.
SPME samples of the various essential oils were injected splitless into a Varian CP-3800 GC equipped with a polar column (HP-INNOWAX; 30 m×0.53 mm×1.0 μm film thickness; Agilent Technologies, Wilmington, Del., USA) and a 1:1 effluent splitter that allowed simultaneous flame ionization detection (FID) and electroantennographic detection (EAD) of BMSB adult or nymph antenna to the separated volatile compounds. Helium was used as the carrier gas, and the injector and detector temperatures were 250° C. and 300° C., respectively. Column temperature was 50° C. for 1 min, rising to 240° C. at 10° C./min, and then held for 10 min. The outlet for the EAD was held in a humidified air stream flowing at 0.5 m/sec over the antennal preparation. EAD recordings were made using silver wire-glass capillary electrodes filled with Beadle-Ephrussi Ringer on freshly cut antennae. The antennal signals were stored and analyzed on a PC equipped with a serial IDAC interface box and the program EAD ver. 2.5 (Syntech, Hilversum, The Netherlands). The same GC-EAD recording procedure was also employed on the BMSB antennae against a synthetic mixture of the Spined soldier bug aggregation pheromone components (trans-2-hexenal, benzyl alcohol, and α-terpineol; 200 ng/μl each in hexane, 2 μl injected).
Antennally active compounds (FID peaks) in the SPME samples of essential oils were identified by GC-MS on an HP 6890 GC series coupled with an HP 5973 Mass Selective Detector using the same type of GC column and conditions as described above. Compounds were identified by comparison of retention times with those of authentic standards and with mass spectra of standards.

[1] = synthetic mixture of SSB aggregation pheromone components, FIG. 12
[2] = from the lemongrass oil, FIG. 4

**Q.** For `CCC/C=C/C=O` [trans-2-hexenal], which “EAD response of BMSB antennae” value [1] is on record?
**A.** strong antennal responses

**Q.** For l-carvone, which “EAD response of BMSB antennae” value (from spearmint oil, FIG. 5) is on record?
**A.** significant (strongly or weakly) EAD-responses

**Q.** Which “EAD response of BMSB antennae” value [2] does the source give for `CC(C)=CCC/C(C)=C\C=O` [Z-citral] here?
**A.** strongly responded

**Q.** With `OCc1ccccc1` [benzyl alcohol] as the molecule, how does the “EAD response of BMSB antennae” value [1] read?
**A.** strong antennal responses

**Q.** How did the “EAD response of BMSB antennae” value [1] turn out when `CC1=CCC(C(C)(C)O)CC1` (stereo not drawn) [α-terpineol] was run?
**A.** weak activity

**Q.** How did the “EAD response of BMSB antennae” value (from rosemary oil, FIG. 8) turn out when `CC12CCC(CC1)C(C)(C)O2` [1,8-cineole] was run?
**A.** significant (strongly or weakly) EAD-responses

**Q.** How did the “EAD response of BMSB antennae” value (from ylang ylang oil, FIG. 7) turn out when `COC(=O)c1ccccc1` [methyl benzoate] was run?
**A.** significant (strongly or weakly) EAD-responses

**Q.** With `CC(C)=C1CC[C@@H](C)CC1=O` [pulegone] as the molecule, how does the “EAD response of BMSB antennae” value (from pennyroyal oil, FIG. 11) read?
**A.** significant (strongly or weakly) EAD-responses

**Q.** For `CC(C)=CCCC(C)CCO` (stereo not drawn) [β-citronellol], which “EAD response of BMSB antennae” value (from geranium oil, FIG. 10) is on record?
**A.** significant (strongly or weakly) EAD-responses

**Q.** `CC(C)=CCC/C(C)=C/C=O` [E-citral] was tested. Which “EAD response of BMSB antennae” value [2] did it give?
**A.** strongly responded

**Q.** With `CC(=O)OCc1ccccc1` [benzyl acetate] as the molecule, how does the “EAD response of BMSB antennae” value (from ylang ylang oil, FIG. 7) read?
**A.** significant (strongly or weakly) EAD-responses

**Q.** With `C=CCc1ccc(O)c(OC)c1` [eugenol] as the molecule, how does the “EAD response of BMSB antennae” value (from clove oil, FIG. 6) read?
**A.** significant (strongly or weakly) EAD-responses

**Q.** With `C=C1CC[C@@H]2[C@H]1[C@H]1[C@H](C(C)C)CC[C@]12C` [β-bourbernene] as the molecule, how does the “EAD response of BMSB antennae” value (from geranium oil, FIG. 10) read?
**A.** significant (strongly or weakly) EAD-responses

**Q.** With `COC(=O)c1ccccc1O` [methyl salicylate] as the molecule, how does the “EAD response of BMSB antennae” value (from wintergreen oil, FIG. 9) read?
**A.** significant (strongly or weakly) EAD-responses

**Q.** Which “EAD response of BMSB antennae” value (from geranium oil, FIG. 10) does the source give for P/I-menthones here?
**A.** significant (strongly or weakly) EAD-responses

**Q.** What about the “EAD response of BMSB antennae” value (from pennyroyal oil, FIG. 11) of the same molecule?
**A.** significant (strongly or weakly) EAD-responses

**Q.** Which “EAD response of BMSB antennae” value (from geranium oil, FIG. 10) does the source give for cis/trans-rose oxides here?
**A.** significant (strongly or weakly) EAD-responses

**Q.** `COc1ccc(C)cc1` [4-methylanisole] was tested. Which “EAD response of BMSB antennae” value (from ylang ylang oil, FIG. 7) did it give?
**A.** significant (strongly or weakly) EAD-responses

**Q.** Which “EAD response of BMSB antennae” value (from geranium oil, FIG. 10) does the source give for `CC(C)=CCC/C(C)=C/CO` [geraniol] here?
**A.** significant (strongly or weakly) EAD-responses

**Q.** `CCCCCC(=O)CCC` [4-nonanone] was tested. Which “EAD response of BMSB antennae” value [2] did it give?
**A.** weakly

**Q.** For `CC12CCC(CC1=O)C2(C)C` (stereo not drawn) [camphor], which “EAD response of BMSB antennae” value (from rosemary oil, FIG. 8) is on record?
**A.** significant (strongly or weakly) EAD-responses
